Results as given in patent US4201843A, “Process for manufacturing tylosin derivatives” (Sanraku Ocean Co., Ltd., priority 1975, dated 1980).
In brackets after ≈: the same amount, converted by molar mass.

Legend:
[1] = system: Bacillus cereus ATCC 9634; test: minimum growth-inhibitory concentration; format: cell-based; conditions: ATCC9634
Experimental: (§1) The antimicrobial spectra of new tylosin derivatives of this invention are shown in Table 2 by listing the minimum growth inhibitory concentrations (MIC, mcg/ml). […] The toxicity of these compounds was tested in animals by intravenous administration, and the LD50 values in mice are more than 400 mg/kg with all compounds. In therapeutical experiments with mice manually infected by Staphilococcus aureus SMITH, the ED50 values were less than 50 mg/kg (p.o.) with all said tylosin derivatives.

[2] = system: Bacillus megaterium NRRL B-938; test: minimum growth-inhibitory concentration; format: cell-based; conditions: Priestia megaterium, NRRLB938
Experimental: as §1

[3] = system: Bacillus subtilis ATCC 6633; test: minimum growth-inhibitory concentration; format: cell-based; conditions: ATCC6633
Experimental: as §1

[4] = system: Candida albicans IAM 4905; test: minimum growth-inhibitory concentration; format: cell-based; conditions: IAM4905
Experimental: as §1

[5] = system: Candida tropicalis IAM 4924; test: minimum growth-inhibitory concentration; format: cell-based; conditions: IAM4924
Experimental: as §1

[6] = system: Corynebacterium bovis 1810; test: minimum growth-inhibitory concentration; format: cell-based
Experimental: as §1

[7] = system: Escherichia coli (National Institute of Health); test: minimum growth-inhibitory concentration; format: cell-based
Experimental: as §1

Micrococcus flavus I = test: minimum growth-inhibitory concentration; format: cell-based
Experimental: as §1

[8] = system: Mycobacterium smegmatis ATCC 607; test: minimum growth-inhibitory concentration; format: cell-based; conditions: Mycolicibacterium smegmatis, ATCC607
Experimental: as §1

[9] = system: Proteus morganii (The Institute for Infectious Diseases); test: minimum growth-inhibitory concentration; format: cell-based; conditions: Morganella morganii
Experimental: as §1

[10] = system: Pseudomonas fluorescens NIHJB 254; test: minimum growth-inhibitory concentration; format: cell-based; conditions: NIHJB254
Experimental: as §1

Sarcina lutea ATCC 9341 = test: minimum growth-inhibitory concentration; format: cell-based; conditions: Micrococcus luteus, ATCC9341
Experimental: as §1

[11] = system: Staphylococcus aureus FAD209P; test: minimum growth-inhibitory concentration; format: cell-based; conditions: read-out: minimum growth-inhibitory concentration (MIC)
Experimental: as §1

[12] = system: Staphylococcus aureus SMITH; test: minimum growth-inhibitory concentration; format: cell-based
Experimental: as §1

[13] = system: Staphylococcus aureus MS 8710; test: minimum growth-inhibitory concentration; format: cell-based; conditions: MS8710; Staphylococcus aureus MS 8710, drug resistant strain
Experimental: as §1
(§2) The strains marked * in Table 2 are the drug resistant strains isolated from patients, namely, Staphilococcus aureus MS-9610 which is resistant to penicillin, tetracycline, erythromycin, leucomycin, spiramycin, josamycin and tylosin, Staphilococcus aureus MS-8710 which is resistant to penicillin, tetracycline, erythromycin, leucomycin and tylosin, and Streptococcus pyogenes MH 771 which is resistant to erythromycin, oleandomycin, leucomycin and tylosin.

[14] = system: Staphylococcus aureus MS 9610; test: minimum growth-inhibitory concentration; format: cell-based; conditions: MS9610; Staphylococcus aureus MS 9610, drug resistant strain
Experimental: as §1, §2

[15] = system: Streptococcus pyogenes MH 771; test: minimum growth-inhibitory concentration; format: cell-based; conditions: MH771, read-out: minimum growth-inhibitory concentration (MIC)
Experimental: as §1
(broth-dilution method)
as §2

drug resistant strains = test: antimicrobial activity against drug resistant strains; format: cell-based; conditions: strains marked * in Table 2
From the text: One of the particular advantages of the said tylosin derivatives over known macrolide antibiotics is their distinct antimicrobial activity against drug resistant bacteria.
as §2

solubility in solvents = format: physicochemical; conditions: for solubility in lower alcohols, ketones, ethers, esters, benzene and toluene: e.g. ethanol, acetone, ethyl ether, ethyl acetate
From the text: (§3) The physicochemical analysis and deterimations included elementary analysis, melting point, specific rotatory power, ultraviolet spectrum, infrared spectrum, magnetic nuclear resonance (NMR), C^13 -NMR, mass spectrum (chemical ionization), the release of organic acids under alkaline conditions (gas chromatographical detection), solubility in solvents, color development reaction, basicity of the compounds, appearance and crystalline form. The molecular weight was obtained as QM^+ (Quasi Molecular ion) by chemically-ionized mass spectra analysis.
(§4) (2) the crystals obtained from the solvents in (13) were used for the tests in (1)-(12), and […]

[16] = basicity of the compounds (alkalinity); format: physicochemical
From the text: as §3, §4

SMILES	MIC [1] [µg/mL]	MIC [2] [µg/mL]	MIC [3] [µg/mL]	MIC [4] [µg/mL]	MIC [5] [µg/mL]	MIC [6] [µg/mL]	MIC [7] [µg/mL]	MIC (Micrococcus flavus I) [µg/mL]	MIC [8] [µg/mL]	MIC [9] [µg/mL]	MIC [10] [µg/mL]	MIC (Sarcina lutea ATCC 9341) [µg/mL]	MIC [11] [µg/mL]	MIC [12] [µg/mL]	MIC [13] [µg/mL]	MIC [14] [µg/mL]	MIC [15] [µg/mL]	solubility in acidic water (solubility in solvents)	solubility in alkaline water (solubility in solvents)	solubility in lower alcohols, ketones, ethers, esters, benzene and toluene (solubility in solvents)	other results
CCC(=O)OC1CC(=O)OC(CC)C(COC2OC(C)C(O)C(OC)C2OC)C=C(C)C=CC(=O)C(C)CC(CC=O)C(OC2OC(C)C(OC3CC(C)(O)C(OC(=O)CC(C)C)C(C)O3)C(N(C)C)C2O)C1C (centres unmarked) [3-propionyl-4"-isovaleryltylosin]	0.98 (≈ 0.928 µM)	0.49 (≈ 0.464 µM)	0.49 (≈ 0.464 µM)	> 250	> 250	1 (≈ 0.947 µM)	250 (≈ 237 µM)	0.49 (≈ 0.464 µM)	3.91 (≈ 3.7 µM)	> 250	> 250	0.25 (≈ 0.237 µM)	0.49 (≈ 0.464 µM)	1.95 (≈ 1.85 µM)	15.6 (≈ 14.8 µM)	62.5 (≈ 59.2 µM)	3.91 (≈ 3.7 µM)	soluble	hardly soluble	soluble	antimicrobial activity against a wide range of drug resistant strains (drug resistant strains): particularly strong antimicrobial activity; solubility in n-hexane and petroleum ether (solubility in solvents): hardly soluble; solubility in neutral water (solubility in solvents): slightly soluble; alkalinity [16]: alkaline compounds
CCCC(=O)OC1C(C)OC(OC2C(C)OC(OC3C(CC=O)CC(C)C(=O)C=CC(C)=CC(COC4OC(C)C(O)C(OC)C4OC)C(CC)OC(=O)CC(OC(=O)CC)C3C)C(O)C2N(C)C)CC1(C)O (centres unmarked) [3-propionyl-4"-n-butyryltylosin]	1.95 (≈ 1.87 µM)	0.49 (≈ 0.47 µM)	0.49 (≈ 0.47 µM)	> 250	> 250	0.5 (≈ 0.48 µM)	250 (≈ 240 µM)	0.25 (≈ 0.24 µM)	3.91 (≈ 3.75 µM)	> 250	> 250	< 0.12	0.98 (≈ 0.94 µM)	0.25 (≈ 0.24 µM)	31.3 (≈ 30 µM)	250 (≈ 240 µM)	15.6 (≈ 15 µM)	soluble	hardly soluble	soluble	antimicrobial activity against a wide range of drug resistant strains (drug resistant strains): particularly strong antimicrobial activity; solubility in n-hexane and petroleum ether (solubility in solvents): hardly soluble; solubility in neutral water (solubility in solvents): slightly soluble; alkalinity [16]: alkaline compounds
CCC(=O)OC1CC(=O)OC(CC)C(COC2OC(C)C(O)C(OC)C2OC)/C=C(C)/C=C/C(=O)C(C)CC(CC=O)C(OC2OC(C)C(OC3CC(C)(O)C(O)C(C)O3)C(N(C)C)C2O)C1C (centres unmarked) [3-propionyltylosin]	0.25 (≈ 0.257 µM)	< 0.12	0.25 (≈ 0.257 µM)	> 250	> 250	0.25 (≈ 0.257 µM)	250 (≈ 257 µM)	< 0.12	3.91 (≈ 4.02 µM)	> 250	> 250	< 0.12	0.25 (≈ 0.257 µM)	0.12 (≈ 0.123 µM)	62.5 (≈ 64.3 µM)	> 250	62.5 (≈ 64.3 µM)	soluble	hardly soluble	soluble	solubility in n-hexane and petroleum ether (solubility in solvents): hardly soluble; solubility in neutral water (solubility in solvents): slightly soluble; alkalinity [16]: alkaline compounds
CCC1OC(=O)CC(O)C(C)C(OC2OC(C)C(OC3CC(C)(O)C(OC(=O)CC(C)C)C(C)O3)C(N(C)C)C2O)C(CC=O)CC(C)C(=O)/C=C/C(C)=C/C1COC1OC(C)C(O)C(OC)C1OC (centres unmarked) [4"-isovaleryltylosin]	0.98 (≈ 0.98 µM)	0.98 (≈ 0.98 µM)	0.49 (≈ 0.49 µM)	> 250	> 250	0.5 (≈ 0.5 µM)	125 (≈ 125 µM)	0.25 (≈ 0.25 µM)	3.91 (≈ 3.91 µM)	> 250	> 250	< 0.12	0.49 (≈ 0.49 µM)	0.25 (≈ 0.25 µM)	15.6 (≈ 15.6 µM)	62.5 (≈ 62.5 µM)	7.8 (≈ 7.8 µM)	soluble	hardly soluble	soluble	antimicrobial activity against a wide range of drug resistant strains (drug resistant strains): particularly strong antimicrobial activity; solubility in n-hexane and petroleum ether (solubility in solvents): hardly soluble; solubility in neutral water (solubility in solvents): slightly soluble; alkalinity [16]: alkaline compounds
